A short description of experiment [1]: Inhibition of TEL fused Lck-mediated proliferation of TEL-Lck transformed mouse BA/F3 cells after 48 hrs by bright-glo luciferase assay.
The nature of experiment [2]: Inhibition of TEL fused KDR-mediated proliferation of TEL-KDR transformed mouse BA/F3 cells after 48 hrs by bright-glo luciferase assay.
Experiment [3] in a line: Inhibition of TEL fused Lyn-mediated proliferation of TEL-Lyn transformed mouse BA/F3 cells after 48 hrs by bright-glo luciferase assay.
Experiment [4] can be described thus: Inhibition of TEL fused Src-mediated proliferation of TEL-Src transformed mouse BA/F3 cells after 48 hrs by bright-glo luciferase assay.
A short description of experiment [5]: Inhibition of TEL fused InsR-mediated proliferation of TEL-InsR transformed mouse BA/F3 cells after 48 hrs by bright-glo luciferase assay.

Structures are written as SMILES.

Molecule `Cc1cc(C)c(Nc2nc3ccccc3n2-c2cc(N)ncn2)c(Br)c1` [1-(6-aminopyrimidin-4-yl)-N-(2-bromo-4,6-dimethylphenyl)-1H-benzo[d]imidazol-2-amine] yielded a concentration for half-maximal inhibition (IC50) in experiment [1] of 1.17 µM. As for `Cc1cc(C)c(Nc2nc3ccccc3n2-c2cc(N)ncn2)c(C)c1` [1-(6-aminopyrimidin-4-yl)-N-mesityl-1H-benzo[d]imidazol-2-amine], inhibition in experiment [1] was half-maximal at 0.583 µM (IC50). With `Cc1nc(Nc2cc(-n3c(Nc4c(C)cccc4Cl)nc4ccccc43)ncn2)cc(N2CCN(CCO)CC2)n1` [2-(4-(6-(6-(2-(2-chloro-6-methylphenylamino)-1H-benzo[d]imidazol-1-yl)pyrimidin-4-ylamino)-2-methylpyrimidin-4-yl)piperazin-1-yl)ethanol], the IC50 in experiment [2] is 0.356 µM; in experiment [3], 0.03 µM; in experiment [4], 0.005 µM; in experiment [5] it was 2.35 µM.

The molecule `Cc1cccc(Cl)c1Nc1nc2ccccc2n1-c1cc(Nc2ncnc(NCCN3CCOCC3)c2C)ncn1` [N4-(6-(2-(2-chloro-6-methylphenylamino)-1H-benzo[d]imidazol-1-yl)pyrimidin-4-yl)-5-methyl-N6-(2-morpholinoethyl)pyrimidine-4,6-diamine] yielded an IC50 in experiment [1] of 0.359 µM.

As to `CCN(CC)CCCCNc1cc(-n2c(Nc3c(C)cccc3Cl)nc3ccccc32)ncn1` [N-(2-chloro-6-methylphenyl)-1-(6-(4-(diethylamino)butylamino)pyrimidin-4-yl)-1H-benzo[d]imidazol-2-amine], the 50% inhibitory concentration (IC50) in experiment [1] stood at 5.04 µM. Still for that read-out and setting: as for `Cc1cccc(Cl)c1Nc1nc2ccccc2n1-c1cc(Nc2cc(CN3CCOCC3)ccn2)ncn1` [N-(2-chloro-6-methylphenyl)-1-(6-(4-(morpholinomethyl)pyridin-2-ylamino)pyrimidin-4-yl)-1H-benzo[d]imidazol-2-amine], the figure is 0.017 µM. Regarding `Cc1cccc(Cl)c1Nc1nc2ccccc2n1-c1cc(Nc2ccc(CCN3CCOCC3)cn2)ncn1` [N-(2-chloro-6-methylphenyl)-1-(6-(5-(2-morpholinoethyl)pyridin-2-ylamino)pyrimidin-4-yl)-1H-benzo[d]imidazol-2-amine], the IC50 in experiment [2] came to 1.01 µM; in experiment [3] it was 0.215 µM; in experiment [4] it was 0.147 µM; in experiment [5], 5.17 µM. `Cc1cccc(Cl)c1Nc1nc2ccccc2n1-c1cc(NN2CCOCC2)ncn1` [N-(2-chloro-6-methylphenyl)-1-(6-(morpholinoamino)pyrimidin-4-yl)-1H-benzo[d]imidazol-2-amine] gave a 50% inhibitory concentration (IC50) in experiment [1] above 10 µM. For `Cc1cccc(Cl)c1Nc1nc2ccccc2n1-c1cc(Cl)ncn1` [N-(2-chloro-6-methylphenyl)-1-(6-chloropyrimidin-4-yl)-1H-benzo[d]imidazol-2-amine], the IC50 in experiment [1] turned out to be 5.7 µM.

`Cc1cccc(Cl)c1Nc1nc2ccccc2n1-c1cc(N2CCOCC2)ncn1` [N-(2-chloro-6-methylphenyl)-1-(6-morpholinopyrimidin-4-yl)-1H-benzo[d]imidazol-2-amine] registered an IC50 in experiment [1] above 10 µM.

Usually IC50 stands for the concentration at which inhibition is half-maximal.
